Measured values reported in patent US20230183219A1, “CONDENSED SUBSTITUTED HYDROPYRROLES AS ANTAGONISTS OF THE MUSCARINIC ACETYLCHOLINE RECEPTOR M4” (Vanderbilt University, priority 2020, published 2023).

Key:
Human M4 = biological target: T1, Human M4 (Homo sapiens, UniProt P08173); test: mAChR M4 cell-based functional assay (calcium flux, decrease of EC80 acetylcholine response); settings: for remaining activity at 30 µM: % ACh maximum at 30 μM, read-out: Human M4 Emin; for IC50: M4/Gqi5/CHO-K1 cells, decrease of response to EC80 acetylcholine
T1 construct: Human or rat M4 cDNA, along with the chimeric G protein Gqi5, were transfected into Chinese hamster ovary (CHO-K1) cells; expressed in transfected cells; host or cells: CHO-K1 (Chinese hamster ovary, ATCC), stably co-expressing Gqi5
T1 sequence (P08173 1-479): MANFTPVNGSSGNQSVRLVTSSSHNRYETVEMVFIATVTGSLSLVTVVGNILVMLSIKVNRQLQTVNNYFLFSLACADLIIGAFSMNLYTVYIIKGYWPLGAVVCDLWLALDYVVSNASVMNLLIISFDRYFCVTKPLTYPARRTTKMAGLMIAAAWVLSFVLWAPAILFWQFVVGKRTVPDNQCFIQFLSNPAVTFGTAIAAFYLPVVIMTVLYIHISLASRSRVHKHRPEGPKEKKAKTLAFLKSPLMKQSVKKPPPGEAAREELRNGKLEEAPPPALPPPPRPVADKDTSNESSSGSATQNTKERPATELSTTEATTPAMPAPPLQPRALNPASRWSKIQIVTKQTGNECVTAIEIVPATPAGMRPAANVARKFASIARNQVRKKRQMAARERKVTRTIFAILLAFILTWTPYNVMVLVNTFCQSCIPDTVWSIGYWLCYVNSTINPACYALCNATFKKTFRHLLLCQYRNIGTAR
Method in brief: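 IC50 reflects inhibition of an EC80 acetylcholine calcium response, fitted by four-parameter logistic equation. Fluo-4-loaded M4/Gqi5 CHO-K1 cells received compound (10-point, 1:3 series) 2 s into the FDSS read, then EC20 acetylcholine at 143 s and EC80 at 268 s.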

[1] = test system: haloperidol-induced catalepsy; settings: cited from earlier work

Row | SMILES | remaining activity at 30 µM (Human M4) [%] | IC50 (Human M4) [nM] | reduction of catalepsy induced by haloperidol ([1]; M4KO mice) | reversal of catalepsy induced by haloperidol ([1]; WT mice)
1 | Cn1cc2cc(-c3cc(C#N)c(N[C@H]4C[C@@H]5CN(CC6(C#N)CC6)C[C@@H]5C4)nn3)ccc2n1 [Example 160, 3-(((3aR,5s,6aS)-2-((1-cyano-cyclopropyl)methyl)octahydro-cyclopenta[c]pyrrol-5-yl)amino)-6-(2-methyl-2H-indazol-5-yl)pyridazine-4-carbonitrile] | 6 | 688 |  | 
2 | Cn1cc2cc(-c3cc(C#N)c(N[C@H]4C[C@@H]5CN(C[C@H]6CC7CCC6O7)C[C@@H]5C4)nn3)ccc2n1 (stereo partly drawn) [Example 161, 3-(((3aR,5s,6aS)-2-(((2R)-7-oxabicyclo[2.2.1]heptan-2-yl)methyl)octahydro-cyclopenta[c]pyrrol-5-yl)amino)-6-(2-methyl-2H-indazol-5-yl)pyridazine-4-carbonitrile] | 5 | 2 |  | 
3 | Cc1ccc(F)cc1-c1cc(C(F)(F)F)c(N[C@H]2C[C@@H]3CN(CC4CCOCC4)C[C@@H]3C2)nn1 [compound 11] | 4 | 2.41 |  | 
4 | CN1[C@@H]2C[C@@H](OC(=O)[C@H](CO)c3ccccc3)C[C@H]1[C@@H]1O[C@@H]12 [scopolamine] |  |  | ineffective | completely reversed
